Data set [1] has as its target T1, Dopamine D4 receptor (Homo sapiens, UniProt P21917).
T1 sequence (P21917 1-419): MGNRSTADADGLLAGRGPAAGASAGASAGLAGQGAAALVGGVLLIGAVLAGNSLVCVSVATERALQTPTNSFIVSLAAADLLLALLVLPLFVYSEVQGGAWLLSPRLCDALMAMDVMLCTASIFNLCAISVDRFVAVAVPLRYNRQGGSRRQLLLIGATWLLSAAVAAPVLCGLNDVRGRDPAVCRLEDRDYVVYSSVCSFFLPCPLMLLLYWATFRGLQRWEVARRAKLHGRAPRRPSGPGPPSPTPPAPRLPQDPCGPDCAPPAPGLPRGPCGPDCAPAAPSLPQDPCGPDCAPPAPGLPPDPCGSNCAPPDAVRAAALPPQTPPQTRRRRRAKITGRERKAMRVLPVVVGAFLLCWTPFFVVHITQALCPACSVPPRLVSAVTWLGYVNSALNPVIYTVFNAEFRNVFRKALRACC
As to the kind of experiment: In vitro receptor binding, dopamine D4. Conditions: cloned cells expressing human receptors; read-out: Binding Affinities (Ki; nM) Dopamine D4.

Data set [2] addresses T2, Norepinephrine α2C receptor (Homo sapiens, UniProt P18825).
T2 sequence (P18825 1-462): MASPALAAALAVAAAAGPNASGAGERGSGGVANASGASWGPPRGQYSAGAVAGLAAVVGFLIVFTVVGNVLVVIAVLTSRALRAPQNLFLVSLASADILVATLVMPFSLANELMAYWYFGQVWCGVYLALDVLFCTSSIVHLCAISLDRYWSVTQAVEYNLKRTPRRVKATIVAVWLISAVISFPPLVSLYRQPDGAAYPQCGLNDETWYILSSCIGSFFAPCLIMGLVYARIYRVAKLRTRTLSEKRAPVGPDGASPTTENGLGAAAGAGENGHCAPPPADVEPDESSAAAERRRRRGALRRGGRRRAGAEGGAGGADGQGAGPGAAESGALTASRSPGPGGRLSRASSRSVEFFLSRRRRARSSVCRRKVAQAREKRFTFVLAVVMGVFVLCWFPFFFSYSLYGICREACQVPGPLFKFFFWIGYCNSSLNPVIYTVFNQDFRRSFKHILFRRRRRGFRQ
Description: In vitro receptor binding, norepinephrine α2C.

In data set [3] the target is T3, serotonin 5-HT1A receptor (Homo sapiens, UniProt P08908).
T3 sequence (P08908 1-422): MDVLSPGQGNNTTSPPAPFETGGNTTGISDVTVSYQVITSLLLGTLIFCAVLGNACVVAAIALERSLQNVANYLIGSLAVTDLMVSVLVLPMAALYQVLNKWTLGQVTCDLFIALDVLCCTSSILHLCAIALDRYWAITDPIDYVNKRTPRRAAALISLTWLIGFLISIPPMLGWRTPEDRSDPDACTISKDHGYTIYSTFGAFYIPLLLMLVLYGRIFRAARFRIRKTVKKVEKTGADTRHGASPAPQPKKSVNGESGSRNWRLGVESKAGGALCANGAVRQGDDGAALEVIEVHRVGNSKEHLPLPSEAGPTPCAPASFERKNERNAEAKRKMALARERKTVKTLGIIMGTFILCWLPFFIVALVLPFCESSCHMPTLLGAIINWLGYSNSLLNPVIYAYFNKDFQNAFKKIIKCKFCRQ
Description: Functional assay, effect on receptor function. Format: biochemical. As for the experimental part: In vitro binding studies were carried out according to the procedures well-established in the art. Membranes from male Wistar rat brain tissues or cells expressing cloned human receptors were prepared under assay conditions summarized in Ishibashi, T. et al. (Journal of Pharmacology and Experimental Therapeutics (2010)). Functional assays were carried out to analyze the binding affinity and effect on receptor function for dopamine D1-D4 receptor subtypes, serotonin 5-HT1A, 5-HT2A, 5-HT2C, 5-HT6, 5-HT7, norepinephrine α1, α2A, α2C, histamine H1 receptors, and muscarinic M1 receptors.

Data set [4] has as its system patients with schizophrenia. Description: PANSS and BPRS scores, 1-year lurasidone therapy. In kind it is in vivo, human. Conditions: 40-120 mg/day, over a 1-year period.
Data set [5] in a line: Short-term (6-week) and long-term (6-month, 12-month) metabolic safety study. Format: in vivo, human. Here is the method:
The mean change in weight and BMI was assessed at the LOCF endpoint for the short-term study. […] FIG. 6 summarizes the mean change in weight and BMI in observed cases after 6 months and 12 months of treatment
The median change in total cholesterol and triglycerides, and glucose and HbA1c, was also assessed for both the short-term and long-term studies.

Data set [6] has as its system patients with bipolar I depression. Description: Lurasidone monotherapy for bipolar I depression, 6-week study, efficacy. In kind it is in vivo, human. As to conditions: for MADRS effect size vs PBO / MADRS score reduction (change from baseline, MMRM) / reduction in CGI-BP-S depression scores (MMRM): week 6. As for the experimental part: Changes from DB baseline (DB-BL) to week 6 in MADRS and CGI-bipolar severity (CGI-BP-S) depression scores, respectively, were analyzed using mixed model for repeated measures (MMRM). Additional secondary outcome measures, e.g., Sheehan Disability Scale (SDS), were analyzed using analysis of covariance, last observation carried forward (ANCOVA-LOCF), or logistic regression.

Data set [7] is described as follows: Lurasidone adjunctive to lithium or divalproex for bipolar I depression, 6-week study, safety and tolerability. In kind it is in vivo, human. Conditions: adjunctive to Li/VPA. Here is the method:
Therapeutic blood levels of Li or VPA had to be maintained for ≧28 days prior to randomization.
The total duration of treatment was 6 weeks.
Patients were required to continue treatment with lithium or divalproex during the screening period and throughout the study. Dose adjustments of lithium or divalproex were permitted during the trial to ensure that trough serum levels remained within the protocol-specified range (0.6 mEq/L to 1.2 mEq/L for lithium or […] to 125 μg/mL for divalproex).
This study also evaluated the safety and tolerability of using lurasidone in combination with lithium or divalproex. Patients were evaluated for: (1) Adverse effects, discontinuation due to adverse effects (AEs), and serious adverse effects (SAEs), (2) Movement disorders as assessed by Abnormal Involuntary Movement Scale (AIMS), Barnes Akathisia Rating Scale (BARS), and the Simpson-Angus Scale (SAS), and (3) Weight, laboratory measures, vital signs, and electrocardiograms (ECGs).

Data set [8] deals with T4, noradrenaline α2C receptor (Homo sapiens, UniProt P18825).
T4 sequence (P18825 1-462): T2 sequence (P18825 1-462)
As to conditions: background statement; cited from earlier work.

These results are taken from patent publication US20140350029A1 (DAINIPPON SUMITOMO PHARMA CO., LTD., priority 2011, published 2014).

In general, Ki refers to the dissociation constant of the complex between target and ligand, obtained from inhibition or displacement.

Structures are written as SMILES.

Take `O=C1[C@@H]2[C@H]3CC[C@H](C3)[C@@H]2C(=O)N1C[C@@H]1CCCC[C@H]1CN1CCN(c2nsc3ccccc23)CC1` [Lurasidone]: the inhibition constant (Ki) in data set [1] came out at 29.7 nM. Besides, the Ki in data set [2] (cloned cells expressing human receptors, read-out: Binding Affinities (Ki; nM) Norepinephrine α2C) was found to be 10.8 nM. Also, the “affinity for α2C adrenoreceptor (in words)” value in data set [2] (summary of Table 2) is “moderate affinity”. Besides, the “effect on 5-HT1A receptor function” value in data set [3] is listed as “partial agonist”. Moreover, the “total PANSS and Brief Psychiatric Rating Scale (BPRS) scores” value in data set [4] was “gradual and sustained improvement”. For the same compound, the “mean change in weight and BMI as compared to other treatments” value in data set [5] (short-term (6-week) study, LOCF endpoint, patients with schizophrenia) is listed as “minimal increases”. Moreover, the “disturbances in lipids or glycemic control” value in data set [5] (short-term and long-term (6 and 12 months) studies) was “not associated with disturbances in lipids or glycemic control”. Besides, the “Sheehan Disability Scale (SDS) vs PBO” value in data set [6] (both LUR20-60 and LUR80-120 groups, LOCF) is “significant improvement over PBO”. Moreover, in data set [6] (lurasidone 20 to 60 mg/day), the “Responder rates (reduction in MADRS total score ≧50%)” value was determined as 53%; the “MADRS effect size vs PBO” value came to 0.51; the “MADRS score reduction (change from baseline, MMRM)” value is reported as −15.4; the “reduction in CGI-BP-S depression scores (MMRM)” value is recorded as −1.8. In data set [6] (lurasidone 80 to 120 mg/day), the “Responder rates (reduction in MADRS total score ≧50%)” value was 51%; the “MADRS effect size vs PBO” value came out at 0.51; the “MADRS score reduction (change from baseline, MMRM)” value was −15.4; the “reduction in CGI-BP-S depression scores (MMRM)” value is given as −1.7. Moreover, in data set [6] (monotherapy, flexibly dosed at 20 to 60 mg/day or 80 to 120 mg/day), the “depressive symptoms compared to placebo” value is reported as “significantly reduced depressive symptoms”. In addition, in data set [7], the “changes in weight, lipids, and measures of glucemic control” value is “Minimal changes”; the “discontinuation rates due to adverse events” value is on record as 6%; the “most frequently reported adverse events” value is “nausea, headache, somnolence, and tremor”. Moreover, the “reported affinity for noradrenaline α2C receptor” value in data set [8] is given as “high affinity”.
